Experimental data taken from US7358250B2, “Pyrrolo[2,3-d]pyrimidines that modulate ACK1 activity” (Amgen Inc., priority 2004, dated 2008).

Assays:
LCK = molecular target: T1, LCK (Homo sapiens, UniProt P06239); assay: LCK-Homogeneous Time Resolved Fluorescent (HTRF) Kinase Assay; assay type: biochemical; conditions: LCK KD GST (225-509)
T1 construct: 15 μL of LCK KD GST (225-509) for a final volume of 40 μL; GST
Procedure: The LCK HTRF assay begins with LCK in the presence of ATP phosphorylating the biotinylated peptide Gastrin. The reaction incubates for 90 min. To quench the assay detection reagents are added which both stop the reaction by diluting out the enzyme and chelating the metals due to the presence of EDTA. Once the detection reagents are added the assay incubates for 30 min to allow for equilibration of the detection reagents.
The final concentration of gastrin is 1.2 μM. The final concentration of ATP is 0.5 μM (Km app=[…]) and the final concentration of LCK is […]. Buffer conditions are as follows: 50 mM HEPES pH 7.5, 50 mM NaCl, 20 mM MgCl, 5 mM MnCl, 2 mM DTT, 0.05% BSA.
The assay is quenched and stopped with 160 μL of detection reagent. Detection reagents are as follows: Buffer made of 50 mM Tris, pH 7.5, 100 mM NaCl, 3 mM EDTA, 0.05% BSA, 0.1% Tween20. Added to this buffer prior to reading is Steptavidin allophycocyanin (SA-APC) at a final conc in the assay of 0.0004 mg/mL, and europilated anti-phosphotyrosine Ab (Eu-anti-PY) at a final conc of 0.025 nM.
The assay plate is read in either a Discovery or a RubyStar. The eu-anti-PY is excited at 320 nm and emits at 615 nm to excite the SA-APC which in turn emits at 655 nm. The ratio of SA-APC at 655 nm (excited due to close proximity to the Eu-anti-PY because of phosphorylation of the peptide) to free Eu-anti-PY at 615 nm will give substrate phosphorylation.

C8 cells = assay: ACK1 Cell Based Assay, test (C8) cell line; conditions: 0.125% FCS, 20 to 24 h, cell viability (Cytotox One kit)
Procedure: The ACK1 cell based assay is designed to find inhibitors of ACK1 kinase activity which would be prime candidates for the development of anticancer drugs. […] This dependency was confirmed utilizing ACK1 specific siRNAs.
For this assay, test (C8) and control (HeLa) cell lines are seeded in 96 well tissue culture plates (BD Falcon) at a density of 2 to 4×10^4 in DMEM/F12 (C8) or DMEM (HeLa) with 0.125% FCS in the presence of ACK1 inhibitors (final DMSO concentration is 0.5%, all tissue culture media are from Cellgro). After 20 to 24 h incubation at 37° C. and 5% CO2, cell viability is determined using the Cytotox One kit (Promega) according to the manufacturer's instructions.

ACK1 = molecular target: T2, ACK1 (Homo sapiens, UniProt Q07912); assay: ACK1 Enzymatic Assay; assay type: biochemical; conditions: 5 μM ATP, ELISA phosphotyrosine readout
T2 construct: a fusion of an N-terminal (His)6 Tag with amino acids 117 to 489 of ACK1; (His)6 (N); made in house; host or cells: baculovirus infected Hi-5 insect cells
T2 sequence (Q07912 117-489): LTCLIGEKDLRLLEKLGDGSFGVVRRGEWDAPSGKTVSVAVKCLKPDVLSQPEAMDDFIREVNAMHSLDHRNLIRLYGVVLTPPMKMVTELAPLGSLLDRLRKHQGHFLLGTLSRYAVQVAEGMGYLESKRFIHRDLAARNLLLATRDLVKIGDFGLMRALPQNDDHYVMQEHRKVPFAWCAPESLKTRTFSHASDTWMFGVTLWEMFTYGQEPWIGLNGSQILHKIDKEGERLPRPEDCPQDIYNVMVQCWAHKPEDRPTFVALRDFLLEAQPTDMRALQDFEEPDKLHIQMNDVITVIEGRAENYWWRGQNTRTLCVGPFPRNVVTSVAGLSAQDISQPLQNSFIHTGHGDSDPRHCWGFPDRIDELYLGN
Procedure: IC50 values of inventive compounds may be assessed as follows. […] The substrate of for the reaction is ACK1 itself (autophosphorylation) and poly-Glutamic acid-Tyrosine (PGT (4:1), Sigma catalog #PO275). The PGT is coated to Nunc 96 well plates at 80 μg/mL overnight at 4° C. […] Test compounds are added in 10 μL DMSO, and the reaction is started by addition of 10 μL kinase in assay buffer. The reaction proceeds 2 h at room temperature. Next the plates are washed four times, and the level of tyrosine phosphorylation in a given well is quantified by standard ELISA assay utilizing a phosphotyrosine antibody (PY20, Pierce).

T1 sequence (P06239 225-509): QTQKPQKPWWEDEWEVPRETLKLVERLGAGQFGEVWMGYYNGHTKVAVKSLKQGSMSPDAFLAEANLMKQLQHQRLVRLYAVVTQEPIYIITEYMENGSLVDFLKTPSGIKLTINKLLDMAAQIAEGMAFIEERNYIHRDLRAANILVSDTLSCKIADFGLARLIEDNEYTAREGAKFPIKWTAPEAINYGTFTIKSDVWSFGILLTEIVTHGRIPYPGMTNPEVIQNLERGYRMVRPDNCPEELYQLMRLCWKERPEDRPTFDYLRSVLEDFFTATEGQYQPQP

| Ki (LCK) [nM] | Ki (ACK1) [nM] | Compound | IC50 (C8 cells) [nM] |
| --- | --- | --- | --- |
| < 10 | 10 to 100 | CO[C@@H]1CC[C@H]1CNc1ncnc2[nH]c(-c3ccc(OCCN(C)C)cc3)c(-c3ccccc3)c12 (mixture of isomers) [Example 35, trans/cis-{6-[4-(2-Dimethylamino-ethoxy)-phenyl]-5-phenyl-7H-pyrrolo[2,3-d]pyrimidin-4-yl}-(2-methoxy-cyclobutylmethyl)-amine] | > 100 |
| < 10 | > 100 | CN(C)CCOc1ccc(-c2[nH]c3ncnc(NC[C@@H]4CCC[C@H]4N)c3c2-c2ccccc2)cc1 (relative stereo) [Example 40, trans-(2-Amino-cyclopentylmethyl)-{6-[4-(2-dimethylamino-ethoxy)-phenyl]-5-phenyl-7H-pyrrolo[2,3-d]pyrimidin-4-yl}-amine] | > 100 |
| < 10 | < 10 | CN(C)S(=O)(=O)c1ccc(-c2[nH]c3ncnc(NC[C@@H]4CCCO4)c3c2-c2ccccc2)cc1 [Example 5, N,N-Dimethyl-4-{5-phenyl-4-[(tetrahydro-furan-2-ylmethyl)-amino]-7H-pyrrolo[2,3-d]pyrimidin-6-yl}-benzenesulfonamide] | 10 to 100 |
| < 10 | < 10 | CCN(CC)S(=O)(=O)c1ccc(-c2[nH]c3ncnc(NCC4CCCO4)c3c2-c2ccccc2)cc1 (stereo not drawn) [Example 7, N,N-Diethyl-4-{5-phenyl-4-[(tetrahydrofuran-2-ylmethyl)-amino]-7H-pyrrolo[2,3-d]pyrimidin-6-yl}-benzenesulfonamide] | > 100 |
| < 10 | < 10 | COCCN(CCOC)S(=O)(=O)c1ccc(-c2[nH]c3ncnc(NCC4CCCO4)c3c2-c2ccccc2)cc1 (stereo not drawn) [Example 8, N,N-Bis-(2-methoxyethyl)-4-{5-phenyl-4-[(tetrahydrofuran-2-ylmethyl)-amino]-7H-pyrrolo[2,3-d]pyrimidin-6-yl}-benzenesulfonamide] | > 100 |
| 10 to 100 | 10 to 100 | CC(C)(C)OC(=O)CNS(=O)(=O)c1ccc(-c2[nH]c3ncnc(NCC4CCCO4)c3c2-c2ccccc2)cc1 (stereo not drawn) [Example 13, (4-{5-Phenyl-4-[(tetrahydrofuran-2-ylmethyl)-amino]-7H-pyrrolo[2,3-d]pyrimidin-6-yl}-benzenesulfonylamino)-acetic acid tert-butyl ester] | > 100 |
| < 10 |  | CN(C)CCOc1ccc(-c2[nH]c3ncnc(NCC4SCCS4)c3c2-c2ccccc2)cc1 [Example 33, {6-[4-(2-Dimethylaminoethoxy)-phenyl]-5-phenyl-7H-pyrrolo[2,3-d]pyrimidin-4-yl}-[1,3]dithiolan-2-ylmethyl-amine] | < 10 |

The remaining lines, values behind:

| Compound | Ki (LCK) [nM] | Ki (ACK1) [nM] | IC50 (C8 cells) [nM] |
| --- | --- | --- | --- |
| CN(C)CCOc1ccc(-c2[nH]c3ncnc(NC[C@@H]4CC[C@H]4O)c3c2-c2ccccc2)cc1 (mixture of isomers) [Example 36, trans/cis-2-({6-[4-(2-Dimethylamino-ethoxy)-phenyl]-5-phenyl-7H-pyrrolo[2,3-d]pyrimidin-4-ylamino}-methyl)-cyclobutanol] |  | 10 to 100 | > 100 |
| CN(C)CCOc1ccc(-c2[nH]c3ncnc(NC[C@H]4CCC[C@H]4O)c3c2-c2ccccc2)cc1 (relative stereo) [Example 37, cis-2-({6-[4-(2-Dimethylamino-ethoxy)-phenyl]-5-phenyl-7H-pyrrolo[2,3-d]pyrimidin-4-ylamino}-methyl)-cyclopentanol] | < 10 |  | > 100 |
| CN(C)CCOc1ccc(-c2[nH]c3ncnc(NC[C@H]4CCC[C@H]4N)c3c2-c2ccccc2)cc1 (relative stereo) [Example 38, cis-(2-Amino-cyclopentylmethyl)-{6-[4-(2-dimethylamino-ethoxy)-phenyl]-5-phenyl-7H-pyrrolo[2,3-d]pyrimidin-4-yl}-amine] | 10 to 100 | > 100 | > 100 |
| CN(C)CCOc1ccc(-c2[nH]c3ncnc(NC[C@H]4CCC[C@H]4NS(C)(=O)=O)c3c2-c2ccccc2)cc1 (relative stereo) [Example 39, cis-N-[2-({6-[4-(2-Dimethylamino-ethoxy)-phenyl]-5-phenyl-7H-pyrrolo[2,3-d]pyrimidin-4-ylamino}-methyl)-cyclopentyl]-methanesulfonamide] | < 10 | > 100 | > 100 |
| CN(C)CCOc1ccc(-c2[nH]c3ncnc(NC[C@@H]4CCC[C@H]4NS(C)(=O)=O)c3c2-c2ccccc2)cc1 (relative stereo) [Example 41, trans-N-[2-({6-[4-(2-Dimethylamino-ethoxy)-phenyl]-5-phenyl-7H-pyrrolo[2,3-d]pyrimidin-4-ylamino}-methyl)-cyclopentyl]-methanesulfonamide] | < 10 | 10 to 100 | > 100 |
| c1ccc(-c2[nH]c3ncnc(NCCN4CCOCC4)c3c2-c2ccccc2)cc1 [Example 1, (5,6-Diphenyl-7H-pyrrolo[2,3-d]pyrimidin-4-yl)-(2-morpholin-4-ylethyl)-amine] | 10 to 100 | 10 to 100 | > 100 |
| c1ccc(-c2[nH]c3ncnc(NCC4CCCO4)c3c2-c2ccccc2)cc1 (stereo not drawn) [Example 2, (5,6-Diphenyl-7H-pyrrolo[2,3-d]pyrimidin-4-yl)-(tetrahydrofuran-2-ylmethyl)-amine] | < 10 | < 10 | > 100 |
| c1ccc(-c2[nH]c3ncnc(NCC4CCCS4)c3c2-c2ccccc2)cc1 (stereo not drawn) [Example 3, (5,6-Diphenyl-7H-pyrrolo[2,3-d]pyrimidin-4-yl)-(tetrahydrothiophen-2-ylmethyl)-amine] | < 10 | 10 to 100 | > 100 |
| c1ccc(-c2[nH]c3ncnc(NCC4CCCCO4)c3c2-c2ccccc2)cc1 (stereo not drawn) [Example 4, (5,6-Diphenyl-7H-pyrrolo[2,3-d]pyrimidin-4-yl)-(tetrahydropyran-2-ylmethyl) amine] | < 10 | 10 to 100 | > 100 |
| CNS(=O)(=O)c1ccc(-c2[nH]c3ncnc(NCC4CCCO4)c3c2-c2ccccc2)cc1 (stereo not drawn) [Example 6, N-Methyl-4-{5-phenyl-4-[(tetrahydrofuran-2-ylmethyl)-amino]-7H-pyrrolo[2,3-d]pyrimidin-6-yl}-benzenesulfonamide] | < 10 | < 10 | 10 to 100 |
| COCCNS(=O)(=O)c1ccc(-c2[nH]c3ncnc(NCC4CCCO4)c3c2-c2ccccc2)cc1 (stereo not drawn) [Example 9, N-(2-Methoxyethyl)-4-{5-phenyl-4-[(tetrahydrofuran-2-ylmethyl)-amino]-7H-pyrrolo[2,3-d]pyrimidin-6-yl}-benzenesulfonamide] | < 10 | < 10 | 10 to 100 |
| O=S(=O)(c1ccc(-c2[nH]c3ncnc(NCC4CCCO4)c3c2-c2ccccc2)cc1)N1CCOCC1 (stereo not drawn) [Example 10, {6-[4-(Morpholin-4-sulfonyl)-phenyl]-5-phenyl-7H-pyrrolo[2,3-d]pyrimidin-4-yl}-(tetrahydrofuran-2-ylmethyl)-amine] | < 10 | < 10 | > 100 |
| O=S(=O)(NCCN1CCOCC1)c1ccc(-c2[nH]c3ncnc(NCC4CCCO4)c3c2-c2ccccc2)cc1 (stereo not drawn) [Example 11, N-(2-Morpholin-4-yl-ethyl)-4-{5-phenyl-4-[(tetrahydrofuran-2-ylmethyl)-amino]-7H-pyrrolo[2,3-d]pyrimidin-6-yl}-benzenesulfonamide] | < 10 | < 10 | 10 to 100 |
| C=CCNS(=O)(=O)c1ccc(-c2[nH]c3ncnc(NCC4CCCO4)c3c2-c2ccccc2)cc1 (stereo not drawn) [Example 12, N-Allyl-4-{5-phenyl-4-[(tetrahydro-furan-2-ylmethyl)-amino]-7H-pyrrolo[2,3-d]pyrimidin-6-yl}-benzenesulfonamide] | < 10 | < 10 | > 100 |
